Experimental data published in ChEMBL document CHEMBL1201862, “PubChem BioAssay data set” (2004).
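Method: 48-hour compound exposure of cells in 96-well plates, five concentrations, linear interpolation of endpoints. GI50 = concentration required for 50% inhibition of growth.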 The source made the active and inactive calls. Rule as the data show it: active = GI50 up to about 1.1 µM and inactive = higher.

Columns and labels:
Assay in all cases: DTP human tumour cell line panel, 48 h
M14 = tested on: M14
OVCAR-8 = tested on: OVCAR-8
SK-MEL-2 = tested on: SK-MEL-2
NCI/ADR-RES = tested on: NCI/ADR-RES
TK-10 = tested on: TK-10
BT-549 = tested on: BT-549
SW-620 = tested on: SW-620
MOLT-4 = tested on: MOLT-4
MCF7 = tested on: MCF7
NCI-H226 = tested on: NCI-H226
Hs-578T = tested on: Hs-578T
SF-539 = tested on: SF-539
Malme-3M = tested on: Malme-3M
CCRF-CEM = tested on: CCRF-CEM
SN12C = tested on: SN12C
HOP-62 = tested on: HOP-62
A498 = tested on: A498
COLO 205 = tested on: COLO 205
A549 = tested on: A549
HCT-15 = tested on: HCT-15
UACC-257 = tested on: UACC-257
DU-145 = tested on: DU-145
LOX IMVI = tested on: LOX IMVI
SNB-19 = tested on: SNB-19
EKVX = tested on: EKVX
IGROV-1 = tested on: IGROV-1
SF-295 = tested on: SF-295
SK-MEL-28 = tested on: SK-MEL-28
SK-MEL-5 = tested on: SK-MEL-5
MDA-MB-435 = tested on: MDA-MB-435
UO-31 = tested on: UO-31
RXF 393 = tested on: RXF 393
RPMI-8226 = tested on: RPMI-8226
SK-OV-3 = tested on: SK-OV-3
HCT-116 = tested on: HCT-116
HOP-92 = tested on: HOP-92
ACHN = tested on: ACHN
OVCAR-4 = tested on: OVCAR-4
OVCAR-5 = tested on: OVCAR-5
KM12 = tested on: KM12
SF-268 = tested on: SF-268
U-251 = tested on: U-251
PC-3 = tested on: PC-3
UACC-62 = tested on: UACC-62
HCC 2998 = tested on: HCC 2998
NCI-H23 = tested on: NCI-H23
OVCAR-3 = tested on: OVCAR-3
T47D = tested on: T47D
MDA-MB-231 = tested on: MDA-MB-231
MDA-N = tested on: MDA-N
CAKI-1 = tested on: CAKI-1
HL-60 = tested on: HL-60
SNB-75 = tested on: SNB-75
HT-29 = tested on: HT-29
786-0 = tested on: 786-0
NCI-H460 = tested on: NCI-H460
SR = tested on: SR
K562 = tested on: K562

## Cc1cn(Cc2cnnn2CC2OC(n3cc(C)c(=O)[nH]c3=O)CC2O)c(=O)[nH]c1=O (stereo not given)
M14
  GI50: > 100 µM (inactive)
OVCAR-8
  GI50: > 100 µM (inactive)
SK-MEL-2
  GI50: > 100 µM (inactive)
NCI/ADR-RES
  GI50: > 100 µM (inactive)
TK-10
  GI50: > 100 µM (inactive)
BT-549
  GI50: > 100 µM (inactive)
SW-620
  GI50: > 100 µM (inactive)
MOLT-4
  GI50: > 100 µM (inactive)
MCF7
  GI50: > 100 µM (inactive)
NCI-H226
  GI50: > 100 µM (inactive)
Hs-578T
  GI50: > 100 µM (inactive)
SF-539
  GI50: > 100 µM (inactive)
Malme-3M
  GI50: > 100 µM (inactive)
CCRF-CEM
  GI50: > 100 µM (inactive)
SN12C
  GI50: > 100 µM (inactive)
HOP-62
  GI50: > 100 µM (inactive)
A498
  GI50: > 100 µM (inactive)
COLO 205
  GI50: > 100 µM (inactive)
A549
  GI50: > 100 µM (inactive)
HCT-15
  GI50: > 100 µM
UACC-257
  GI50: > 100 µM (inactive)
DU-145
  GI50: > 100 µM (inactive)
LOX IMVI
  GI50: > 100 µM (inactive)
SNB-19
  GI50: > 100 µM (inactive)
EKVX
  GI50: > 100 µM (inactive)
IGROV-1
  GI50: > 100 µM (inactive)
SF-295
  GI50: > 100 µM (inactive)
SK-MEL-28
  GI50: > 100 µM (inactive)
SK-MEL-5
  GI50: > 100 µM (inactive)
MDA-MB-435
  GI50: > 100 µM (inactive)
UO-31
  GI50: > 100 µM (inactive)
RXF 393
  GI50: > 100 µM (inactive)
RPMI-8226
  GI50: > 100 µM (inactive)
SK-OV-3
  GI50: > 100 µM (inactive)
HCT-116
  GI50: > 100 µM (inactive)
HOP-92
  GI50: > 100 µM (inactive)
ACHN
  GI50: > 100 µM (inactive)
OVCAR-4
  GI50: > 100 µM (inactive)
OVCAR-5
  GI50: > 100 µM (inactive)
KM12
  GI50: > 100 µM (inactive)
SF-268
  GI50: > 100 µM (inactive)
U-251
  GI50: > 100 µM (inactive)
PC-3
  GI50: > 100 µM (inactive)
UACC-62
  GI50: > 100 µM (inactive)
HCC 2998
  GI50: > 100 µM (inactive)
NCI-H23
  GI50: > 100 µM (inactive)
OVCAR-3
  GI50: > 100 µM (inactive)
T47D
  GI50: > 100 µM (inactive)
MDA-MB-231
  GI50: > 100 µM (inactive)
MDA-N
  GI50: > 100 µM (inactive)
CAKI-1
  GI50: > 100 µM (inactive)

## C1=CC2(C=CC13O[C@H](C1CCCCC1)[C@@H](C1CCCCC1)O3)O[C@H](C1CCCCC1)[C@@H](C1CCCCC1)O2
M14
  GI50: > 50 µM (inactive)
OVCAR-8
  GI50: > 50 µM (inactive)
SK-MEL-2
  GI50: > 50 µM (inactive)
NCI/ADR-RES
  GI50: > 50 µM (inactive)
HL-60
  GI50: > 50 µM (inactive)
TK-10
  GI50: > 50 µM (inactive)
BT-549
  GI50: > 50 µM (inactive)
SW-620
  GI50: > 50 µM (inactive)
MOLT-4
  GI50: > 50 µM (inactive)
MCF7
  GI50: > 50 µM (inactive)
NCI-H226
  GI50: > 50 µM (inactive)
Hs-578T
  GI50: > 50 µM (inactive)
SF-539
  GI50: > 50 µM (inactive)
Malme-3M
  GI50: > 50 µM (inactive)
SN12C
  GI50: > 50 µM (inactive)
HOP-62
  GI50: > 50 µM (inactive)
A498
  GI50: > 50 µM (inactive)
COLO 205
  GI50: > 50 µM (inactive)
A549
  GI50: > 50 µM (inactive)
HCT-15
  GI50: > 50 µM
UACC-257
  GI50: > 50 µM (inactive)
DU-145
  GI50: > 50 µM (inactive)
LOX IMVI
  GI50: > 50 µM (inactive)
SNB-19
  GI50: > 50 µM (inactive)
IGROV-1
  GI50: > 50 µM (inactive)
SNB-75
  GI50: > 50 µM (inactive)
SF-295
  GI50: > 50 µM (inactive)
SK-MEL-28
  GI50: > 50 µM (inactive)
SK-MEL-5
  GI50: > 50 µM (inactive)
HT-29
  GI50: > 50 µM (inactive)
MDA-MB-435
  GI50: > 50 µM (inactive)
UO-31
  GI50: > 50 µM (inactive)
RXF 393
  GI50: > 50 µM (inactive)
RPMI-8226
  GI50: 23.2 µM (inactive)
SK-OV-3
  GI50: > 50 µM (inactive)
HCT-116
  GI50: > 50 µM (inactive)
ACHN
  GI50: > 50 µM (inactive)
OVCAR-4
  GI50: > 50 µM (inactive)
786-0
  GI50: > 50 µM (inactive)
OVCAR-5
  GI50: > 50 µM (inactive)
KM12
  GI50: > 50 µM (inactive)
SF-268
  GI50: > 50 µM (inactive)
U-251
  GI50: > 50 µM (inactive)
PC-3
  GI50: > 50 µM (inactive)
UACC-62
  GI50: > 50 µM (inactive)
NCI-H23
  GI50: > 50 µM (inactive)
OVCAR-3
  GI50: > 50 µM (inactive)
NCI-H460
  GI50: > 50 µM (inactive)
SR
  GI50: > 50 µM (inactive)
T47D
  GI50: > 50 µM (inactive)
MDA-MB-231
  GI50: > 50 µM (inactive)
K562
  GI50: > 50 µM (inactive)
MDA-N
  GI50: > 50 µM (inactive)
CAKI-1
  GI50: > 50 µM (inactive)
